Results: publication PMC11799997 (ACS Omega, 2025)

Legend:
[1] = test system: renal brush border membrane vesicles (RBBMVs); assay: Enzyme-mediated cleavage assay with RBBMVs; type: in vitro ADME, rat; conditions: 10 mg/mL RBBMVs, 37 °C, TLC; for release of [64Cu]Cu-cyclam-G upon incubation with RBBMVs: 10 min–24 h; for release of radiometabolite-X (% of the radioactivity): 24 h
[2] = Urinary radiometabolite assay in normal mice; type: in vivo, mouse; conditions: for urinary radioactivity with tR consistent with [64Cu]Cu-cyclam-G: pilot, 13.3 MBq/12.4 nmol i.v., RP-HPLC
[3] = Ex vivo biodistribution study in normal mice; set-up: species or system mouse; conditions: 3 to 24 h p.i.
U87MG tumor-bearing mice = assay: PET imaging of U87MG tumor-bearing mice; type: in vivo, mouse; conditions: for rate of reduction in renal radioactivity level (PET): from 1 to 24 h p.i.
[4] = Whole-body dynamic PET in normal mice; conditions: for RRL relative to [64Cu]Cu-cyclam-RaftRGD / renal radioactivity level (RRL): 57.5 min p.i.; for renal radioactivity level (RRL) / radioactivity in the bladder: 2.92–4.26 MBq/0.3 nmol i.v.; for radioactivity in the bladder: by 1 h p.i.
[5] = test system: renal brush border enzymes (RBBMVs); assay: Enzyme inhibition study of RBBMV-mediated cleavage of the GFK linkage; type: biochemical, rat; conditions: 1 mM inhibitor; for inhibition of release of [64Cu]Cu-cyclam-G from [64Cu]Cu-cyclam-GFK(Bz) / inhibition of release of radiometabolite-X from [64Cu]Cu-cyclam-GFK(Bz): RBBMVs 10 mg/mL, 37 °C, 5 or 24 h, TLC; for inhibition of release of [64Cu]Cu-cyclam-G from [64Cu]Cu-cyclam-GFK(Bz) (pilot): RBBMVs 3 mg/mL, 37 °C overnight, RP-HPLC
[6] = Pilot dynamic PET imaging of [64Cu]Cu-cyclam-G in normal mice

Molecule | inhibition of release of [64Cu]Cu-cyclam-G from [64Cu]Cu-cyclam-GFK(Bz) [5] | inhibition of release of radiometabolite-X from [64Cu]Cu-cyclam-GFK(Bz) [5] | release of [64Cu]Cu-cyclam-G upon incubation with RBBMVs [1] | release of radiometabolite-X (% of the radioactivity) [1] [%] | urine radioactivity fraction as intact compound ([2]; urine 0–6 h p.i., TLC) | reduction of kidney radioactivity level [3] [%] | reduction of liver radioactivity level [3] [%] | rate of reduction in renal radioactivity level (PET) (U87MG tumor-bearing mice) [%] | other results
O=C(CN1CCCNCCNCCCNCC1)NCC(=O)N[C@@H](Cc1ccccc1)C(=O)N[C@@H](CCCCNC(=O)c1ccccc1)C(=O)O [[^64Cu]Cu-cyclam-GFK(Bz), [^64Cu]Cu-cyclam-GFK(benzoyl [Bz])-OH, metal not drawn] | – | – | released the expected fragment | 43.7 | 67.6 ± 3.4% | – | – | – | urinary radioactivity with tR consistent with [64Cu]Cu-cyclam-G ([2]; mouse urine 10 min p.i.): 5.9%; urinary radioactivity with tR consistent with [64Cu]Cu-cyclam-G ([2]; mouse urine 2 h p.i.): 13.8%; urine radioactivity fraction as [64Cu]Cu-cyclam-G ([2]; urine 0–6 h p.i., TLC): 27.2 ± 2.5%
C[C@@H]1NC(=O)[C@H](CCCCNC(=O)CO/N=C/C(=O)NCCCC[C@@H]2NC(=O)[C@@H](Cc3ccccc3)NC(=O)[C@H](CC(=O)O)NC(=O)CNC(=O)[C@H](CCCNC(=N)N)NC2=O)NC(=O)CNC(=O)[C@@H]2CCCN2C(=O)[C@H](CCCCNC(=O)CO/N=C/C(=O)NCCCC[C@@H]2NC(=O)[C@@H](Cc3ccccc3)NC(=O)[C@H](CC(=O)O)NC(=O)CNC(=O)[C@H](CCCNC(=N)N)NC2=O)NC(=O)[C@H](CCCCNC(=O)CCNC(=O)CCNC(=O)CCNC(=O)[C@H](CCCCN)NC(=O)[C@H](Cc2ccccc2)NC(=O)CNC(=O)CN2CCCNCCNCCCNCC2)NC(=O)[C@H](CCCCNC(=O)CO/N=C/C(=O)NCCCC[C@@H]2NC(=O)[C@@H](Cc3ccccc3)NC(=O)[C@H](CC(=O)O)NC(=O)CNC(=O)[C@H](CCCNC(=N)N)NC2=O)NC(=O)CNC(=O)[C@@H]2CCCN2C(=O)[C@H](CCCCNC(=O)CO/N=C/C(=O)NCCCC[C@@H]2NC(=O)[C@@H](Cc3ccccc3)NC(=O)[C@H](CC(=O)O)NC(=O)CNC(=O)[C@H](CCCNC(=N)N)NC2=O)NC1=O [[^64Cu]Cu-cyclam-GFK(βA)3-RaftRGD, metal not drawn] | – | – | failed to release | 22.9 | much lower and poorly defined for quantification | 74.4 | 34 | 75.6 ± 1.8 | urine radioactivity fraction as radiometabolite-X ([64Cu]Cu-cyclam-GF) ([2]; urine 0–6 h p.i., TLC): 69.1 ± 4.5%; tumor uptake (PET) (U87MG tumor-bearing mice; U87MG tumor, 1–24 h p.i.): significantly higher than those of the GFK compound; RRL relative to [64Cu]Cu-cyclam-RaftRGD [4]: 2.57 fold
C[C@@H]1NC(=O)[C@H](CCCCNC(=O)CO/N=C/C(=O)NCCCC[C@@H]2NC(=O)[C@@H](Cc3ccccc3)NC(=O)[C@H](CC(=O)O)NC(=O)CNC(=O)[C@H](CCCNC(=N)N)NC2=O)NC(=O)CNC(=O)[C@@H]2CCCN2C(=O)[C@H](CCCCNC(=O)CO/N=C/C(=O)NCCCC[C@@H]2NC(=O)[C@@H](Cc3ccccc3)NC(=O)[C@H](CC(=O)O)NC(=O)CNC(=O)[C@H](CCCNC(=N)N)NC2=O)NC(=O)[C@H](CCCCNC(=O)[C@H](CCCCN)NC(=O)[C@H](Cc2ccccc2)NC(=O)CNC(=O)CN2CCCNCCNCCCNCC2)NC(=O)[C@H](CCCCNC(=O)CO/N=C/C(=O)NCCCC[C@@H]2NC(=O)[C@@H](Cc3ccccc3)NC(=O)[C@H](CC(=O)O)NC(=O)CNC(=O)[C@H](CCCNC(=N)N)NC2=O)NC(=O)CNC(=O)[C@@H]2CCCN2C(=O)[C@H](CCCCNC(=O)CO/N=C/C(=O)NCCCC[C@@H]2NC(=O)[C@@H](Cc3ccccc3)NC(=O)[C@H](CC(=O)O)NC(=O)CNC(=O)[C@H](CCCNC(=N)N)NC2=O)NC1=O [[^64Cu]Cu-cyclam-GFK-RaftRGD, metal not drawn] | – | – | failed to release | 18.2 | 27.7 ± 2.4% | 61.1 | 28.0 | 73.0 ± 2.3 | urine radioactivity fraction as radiometabolite-X ([64Cu]Cu-cyclam-GF) ([2]; urine 0–6 h p.i., TLC): 56.9 ± 2.0%; RRL relative to [64Cu]Cu-cyclam-RaftRGD [4]: 2.98 fold
C[C@@H]1NC(=O)[C@H](CCCCNC(=O)CO/N=C/C(=O)NCCCC[C@@H]2NC(=O)[C@@H](Cc3ccccc3)NC(=O)[C@H](CC(=O)O)NC(=O)CNC(=O)[C@H](CCCNC(=N)N)NC2=O)NC(=O)CNC(=O)[C@@H]2CCCN2C(=O)[C@H](CCCCNC(=O)CO/N=C/C(=O)NCCCC[C@@H]2NC(=O)[C@@H](Cc3ccccc3)NC(=O)[C@H](CC(=O)O)NC(=O)CNC(=O)[C@H](CCCNC(=N)N)NC2=O)NC(=O)[C@H](CCCCNC(=O)CN2CCCNCCNCCCNCC2)NC(=O)[C@H](CCCCNC(=O)CO/N=C/C(=O)NCCCC[C@@H]2NC(=O)[C@@H](Cc3ccccc3)NC(=O)[C@H](CC(=O)O)NC(=O)CNC(=O)[C@H](CCCNC(=N)N)NC2=O)NC(=O)CNC(=O)[C@@H]2CCCN2C(=O)[C@H](CCCCNC(=O)CO/N=C/C(=O)NCCCC[C@@H]2NC(=O)[C@@H](Cc3ccccc3)NC(=O)[C@H](CC(=O)O)NC(=O)CNC(=O)[C@H](CCCNC(=N)N)NC2=O)NC1=O [[^64Cu]Cu-cyclam-RaftRGD, [^64Cu]Cu-cyclam-RAFT-c(-RGDfK-)4, metal not drawn] | – | – | – | – | – | 22.8 | 27.0 | 43.0 ± 4.5 | –
[^64Cu]Cu-cyclam-Gly-OH | – | – | – | – | – | – | – | – | 0–6 h urinary radioactivity levels ([2]; normal mice, 7.4 MBq i.v., group values): 34.7 to 50.9 %ID; renal radioactivity level (RRL) [4]: 1.14 ± 0.15 %ID/g; radioactivity in the bladder [4]: > 70 %ID; reduction of renal uptake from peak ([6]; 1.5 to 57.5 min p.i.): 96.7%; renal uptake peak ([6]; 1.5 min p.i., ~7.4 MBq/2 nmol i.v.): 20.3 ± 2.9 %ID/g; renal uptake ([6]; 57.5 min p.i., ~7.4 MBq/2 nmol i.v.): 0.68 ± 0.02 %ID/g; ID excreted in urine ([6]; within 60 min after injection): more than 70 % of ID
[^64Cu]Cu-cyclam-Gly-Phe-OH [[^64Cu]Cu-cyclam-GF] | – | – | – | – | – | – | – | – | renal radioactivity level (RRL) [4]: 1.50 ± 0.81 %ID/g; radioactivity in the bladder [4]: > 70 %ID

Continued, in another order:

inhibition of release of [64Cu]Cu-cyclam-G from [64Cu]Cu-cyclam-GFK(Bz) [5] | inhibition of release of radiometabolite-X from [64Cu]Cu-cyclam-GFK(Bz) [5] | Molecule | release of [64Cu]Cu-cyclam-G upon incubation with RBBMVs [1] | release of radiometabolite-X (% of the radioactivity) [1] [%] | urine radioactivity fraction as intact compound ([2]; urine 0–6 h p.i., TLC) | reduction of kidney radioactivity level [3] [%] | reduction of liver radioactivity level [3] [%] | rate of reduction in renal radioactivity level (PET) (U87MG tumor-bearing mice) [%] | other results
partially inhibited | partially inhibited | C[C@H](CS)C(=O)N1CCC[C@H]1C(=O)O [captopril] | – | – | – | – | – | – | –
not inhibited | not inhibited | CC1(C)C[C@@H]1C(=O)N/C(=C\CCCCSC[C@H](N)C(=O)O)C(=O)O [cilastatin] | – | – | – | – | – | – | inhibition of release of [64Cu]Cu-cyclam-G from [64Cu]Cu-cyclam-GFK(Bz) (pilot) [5]: remained unaffected
not inhibited | partially inhibited | NC(N)=NCCSCC(CS)C(=O)O (stereo not drawn) [mergetpa] | – | – | – | – | – | – | –
nearly completely inhibited | barely inhibited | CC(C)C[C@H](NP(=O)(O)O[C@@H]1O[C@@H](C)[C@H](O)[C@@H](O)[C@H]1O)C(=O)N[C@@H](Cc1c[nH]c2ccccc12)C(=O)O [phosphoramidon] | – | – | – | – | – | – | inhibition of release of [64Cu]Cu-cyclam-G from [64Cu]Cu-cyclam-GFK(Bz) (pilot) [5]: almost completely inhibited
